Holding throughout (assay type): functional
Holding throughout (conditions): for CC50: read-out: LC50 (the source's name)

Assay [1] relates to A2780. Briefly: Antiproliferative activity against human A2780 cells.
For assay [2], the system named is SW1573. The experiment in a line: Antiproliferative activity against human SW1573 cells.
For assay [3], the system named is WiDr. Briefly: Antiproliferative activity against human WiDr cells.

`CC[C@@H](C)[C@H]1O[C@@H](C)CC(Cl)=C1[Si](C)(C)C`: the GI50 in assay [1], in assay [2] and in assay [3] was greater than 100 µM each time.
For the compound `ClC1=CC(CCCCCCCCCCC2C=C(Cl)CCO2)OCC1` (centres undefined), in assay [1], the GI50 (commonly the concentration at which growth is held to half of that of the control) is 8.6 µM, total growth inhibition (TGI) required 25 µM and the CC50 is 65 µM. In assay [2], the GI50 came to 14 µM, total growth inhibition (TGI) required 36 µM and the CC50 stood at 85 µM. Also, in assay [3], the GI50 is 20 µM; the concentration for total growth inhibition (TGI) – broadly, the concentration giving total growth inhibition – came to 61 µM; the CC50 was determined as 89 µM.
Take `C=CCC[C@H]1O[C@@H](C)[C@H](C)C(Cl)=C1[Si](C)(C)C`: the GI50 worked out at 17 µM in assay [1], 23 µM in assay [2] and 37 µM in assay [3]. Further, the TGI in assay [1] stood at 36 µM; in assay [2] it was 55 µM. Also, the CC50 in assay [1] was found to be 19 µM; in assay [2], 92 µM.
Regarding `C[C@H]1CC(Cl)=C([Si](C)(C)C)[C@@H](C2CCCCC2)O1`, in assay [1], the GI50 was found to be 17 µM, the TGI was determined as 32 µM and the CC50 is 61 µM. Further, in assay [2], halving of growth (GI50) required 16 µM, net growth stopped (TGI) at 31 µM and the CC50 worked out at 62 µM. Moreover, in assay [3], the GI50 amounted to 15 µM, net growth stopped (TGI) at 33 µM and the CC50 was determined as 74 µM.
Consider `C[C@@H]1O[C@H](C2CCCCC2)C([Si](C)(C)C)=C(Cl)[C@H]1C`, for which the GI50 in assay [1] worked out at 19 µM; in assay [2], 20 µM; in assay [3], 42 µM. Moreover, the TGI in assay [1] came out at 38 µM; in assay [2] it was 41 µM; in assay [3], 84 µM. Also, the CC50 in assay [1] was determined as 77 µM; in assay [2] it was 76 µM.
In the case of `CC(C)CC1OCCC(Cl)=C1[Si](C)(C)C` (centres undefined), the GI50 in assay [1] was 27 µM; in assay [2], 10 µM; in assay [3], 20 µM. The total growth inhibition concentration (TGI) in assay [1] was 66 µM; in assay [2], 28 µM; in assay [3], 39 µM. For the same compound, the values for the CC50 in assay [1], in assay [2] and in assay [3] were 92 µM, 65 µM and 79 µM, respectively.
In the case of `C[Si](C)(C)C1=C(Cl)C[C@H](Cc2ccccc2)O[C@@H]1C1CCCCC1`, the GI50 was found to be 34 µM in assay [1], 30 µM in assay [2] and 62 µM in assay [3]. In addition, the TGI in assay [1] turned out to be 78 µM; in assay [3] it was 88 µM.
With `CC[C@H]1CC(Cl)=C([Si](C)(C)C)[C@@H](C2CCCCC2)O1`, the GI50 in assay [1] came out at 16 µM; in assay [2], 22 µM; in assay [3], 29 µM. The TGI came to 35 µM in assay [1], 49 µM in assay [2] and 73 µM in assay [3]. The values for the CC50 in assay [1], in assay [2] and in assay [3] were 75 µM, 91 µM and 95 µM, respectively.
For `C#CCCC1C=C(Cl)CCO1` (centres undefined), the GI50 was 37 µM in assay [1], 41 µM in assay [2] and greater than 100 µM in assay [3].
With `ClC1=CC(CCC=C(Br)Br)OCC1` (centres undefined), the 50% growth inhibitory concentration (GI50) was 16 µM in assay [1], 30 µM in assay [2] and 23 µM in assay [3]. For the same compound, the values for the TGI in assay [1], in assay [2] and in assay [3] were 53 µM, 92 µM and 57 µM, respectively. In addition, the values for the CC50 in assay [1] and in assay [3] were 76 µM and 96 µM, respectively.
Regarding `C[C@H]1CC(Cl)=C[C@@H](C2CCCCC2)O1`, in assay [1], the 50% growth inhibitory concentration (GI50) stood at 19 µM, total growth inhibition (TGI) required 38 µM and the CC50 was determined as 79 µM. In addition, in assay [2], growth was halved (GI50) at 12 µM and the TGI stood at 43 µM. Moreover, the GI50 in assay [3] was determined as 65 µM.
On to `C[C@@H]1O[C@H](CCC=C(Br)Br)C([Si](C)(C)C)=C(Cl)[C@H]1C`, for which, in assay [1], growth was halved (GI50) at 16 µM, the TGI amounted to 33 µM and the CC50 worked out at 70 µM. In assay [2], the GI50 was found to be 22 µM, the TGI turned out to be 43 µM and the CC50 was found to be 87 µM. In assay [3], the 50% growth inhibitory concentration (GI50) came to 25 µM and the TGI is 90 µM.
`CC(C)CC1C=C(Cl)CCO1` (centres undefined): the GI50 in assay [1], in assay [2] and in assay [3] was greater than 100 µM in each case.
`ClC1=CC(C2CCCCC2)OCC1` (centres undefined): the GI50 in assay [1] stood at 20 µM; in assay [2], 26 µM; in assay [3], 100 µM.
As to `C[Si](C)(C)C1=C(Cl)C[C@H](C2CCCCC2)O[C@@H]1C1CCCCC1`, the GI50 came out at 22 µM in assay [1], 23 µM in assay [2] and 30 µM in assay [3]. The TGI turned out to be 46 µM in assay [1], 48 µM in assay [2] and 81 µM in assay [3]. Besides, the CC50 was found to be 90 µM in assay [1], 88 µM in assay [2] and 97 µM in assay [3].
With `C#CCC[C@H]1O[C@@H](C)[C@H](C)C(Cl)=C1[Si](C)(C)C`, in assay [1], the GI50 turned out to be 21 µM, the TGI is 39 µM and the CC50 was found to be 75 µM. In assay [2], growth was halved (GI50) at 19 µM, net growth stopped (TGI) at 37 µM and the CC50 turned out to be 75 µM. Further, in assay [3], the GI50 came out at 24 µM, total growth inhibition (TGI) required 68 µM and the CC50 was 85 µM.
Turning to `C[Si](C)(C)C1=C(Cl)C[C@H](Cc2ccccc2)O[C@@H]1CCCCCCCCCC1C=C(Cl)CCO1` (some centres undefined), the GI50 was 23 µM in assay [1], 30 µM in assay [2] and 67 µM in assay [3]. Besides, the TGI in assay [1] was found to be 47 µM; in assay [2] it was 68 µM. Moreover, the CC50 in assay [1] is 96 µM.

Values taken from ChEMBL document CHEMBL1147943, “Antiproliferative activity of 4-chloro-5,6-dihydro-2H-pyrans. Part 2: Enhancement of drug cytotoxicity” (2007).
